Test results taken from patent US11753397B2, “Cereblon binders for the degradation of ikaros” (C4 Therapeutics, Inc., priority 2018, dated 2023).

Tested on: NCIH929.1 cells
Assay: Cell viability assay (CellTiter-Glo 2.0, ATP quantification)
Assay type: cell-based
Details: NCIH929.1 cell viability, CellTiter-Glo 2.0, 96 hr incubation, top concentration 1 μM
Procedure, shortened: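 Cells seeded at 750/well in RPMI with 10% FBS and 0.05 mM 2-mercaptoethanol, exposed 96 h at 37 °C to 10-point half-log dilutions in duplicate, top 1 μM. Viability by CellTiter-Glo 2.0 ATP luminescence, with a day-0 read as cytostatic baseline (CT0).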

| SMILES | GI50 |
| --- | --- |
| O=C1CCC(N2C(=O)c3cccc(NCc4cnn(C5CCN(C(=O)Cc6coc(-c7ccccc7)n6)CC5)c4)c3C2=O)C(=O)N1 (stereo not drawn) [Compound 116, 2-(2,6-dioxopiperidin-3-yl)-4-(((1-(1-(2-(2-phenyloxazol-4-yl)acetyl)piperidin-4-yl)-1H-pyrazol-4-yl)methyl)amino)isoindoline-1,3-dione] | < 100 nM |
| CC12CC(C(=O)N3CCC(n4cc(CNc5cccc6c5C(=O)N(C5CCC(=O)NC5=O)C6=O)cn4)CC3)(C1)C2 (stereo not drawn) [Compound 85, 2-(2,6-dioxopiperidin-3-yl)-4-(((1-(1-(3-methylbicyclo[1.1.1]pentane-1-carbonyl)piperidin-4-yl)-1H-pyrazol-4-yl)methyl)amino)isoindoline-1,3-dione] | < 100 nM |
| O=C1CCC(N2C(=O)c3cccc(NCc4cnn(C5CCN(C(=O)OCC(Cl)(Cl)Cl)CC5)c4)c3C2=O)C(=O)N1 (stereo not drawn) [Compound 148, 2,2,2-trichloroethyl 4-(4-(((2-(2,6-dioxopiperidin-3-yl)-1,3-dioxoisoindolin-4-yl)amino)methyl)-1H-pyrazol-1-yl)piperidine-1-carboxylate] | < 100 nM |
| O=C1CCC(N2C(=O)c3cccc(NCc4cnn(C5CCN(CC6CCC6)CC5)c4)c3C2=O)C(=O)N1 (stereo not drawn) [Compound 131, 4-(((1-(1-(cyclobutylmethyl)piperidin-4-yl)-1H-pyrazol-4-yl)methyl)amino)-2-(2,6-dioxopiperidin-3-yl)isoindoline-1,3-dione] | < 100 nM |
| O=C1CCC(N2C(=O)c3cccc(NCc4cnn(C5CCN(C(=O)C6CCN(C(=O)c7ccccc7)CC6)CC5)c4)c3C2=O)C(=O)N1 (stereo not drawn) [Compound 101, 4-(((1-(1-(1-benzoylpiperidine-4-carbonyl)piperidin-4-yl)-1H-pyrazol-4-yl)methyl)amino)-2-(2,6-dioxopiperidin-3-yl)isoindoline-1,3-dione] | < 100 nM |
| CN(C)CC(=O)N1CCC(n2cc(CNc3cccc4c3C(=O)N(C3CCC(=O)NC3=O)C4=O)cn2)CC1 (stereo not drawn) [Compound 37, 4-(((1-(1-(dimethylglycyl)piperidin-4-yl)-1H-pyrazol-4-yl)methyl)amino)-2-(2,6-dioxopiperidin-3-yl)isoindoline-1,3-dione] | < 100 nM |
| CC(C)Oc1cc(C2CC2)cc(-n2cc(CNc3cccc4c3C(=O)N(C3CCC(=O)NC3=O)C4=O)cn2)c1 (stereo not drawn) [Compound 180, 4-{[1-(3-Cyclopropyl-5-isopropoxy-phenyl)-1H-pyrazol-4-ylmethyl]-amino}-2-(2,6-dioxo-piperidin-3-yl)-isoindole-1,3-dione] | < 100 nM |
| O=C1CCC(N2C(=O)c3cccc(NCc4cnn(C5CCN(C6CC6)CC5)c4)c3C2=O)C(=O)N1 (stereo not drawn) [Compound 134, 4-(((1-(1-cyclopropylpiperidin-4-yl)-1H-pyrazol-4-yl)methyl)amino)-2-(2,6-dioxopiperidin-3-yl)isoindoline-1,3-dione] | < 100 nM |
| CC(C)(C)NC(=O)N1CCC(n2cc(CNc3cccc4c3C(=O)N(C3CCC(=O)NC3=O)C4=O)cn2)CC1 (stereo not drawn) [Compound 161, 4-(4-{[2-(2,6-Dioxo-piperidin-3-yl)-1,3-dioxo-2,3-dihydro-1H-isoindol-4-ylamino]-methyl}-pyrazol-1-yl)-piperidine-1-carboxylic acid tert-butylamide] | < 100 nM |
| O=C1CCC(N2C(=O)c3cccc(NCc4cnn(C5CCN(CC6(C#CC7CC7)CCC6)CC5)c4)c3C2=O)C(=O)N1 (stereo not drawn) [Compound 204, 4-({1-[1-(1-Cyclopropylethynyl-cyclobutylmethyl)-piperidin-4-yl]-1H-pyrazol-4-ylme-thyl}-amino)-2-(2,6-dioxo-piperidin-3-yl)-isoindole-1,3-dione] | < 100 nM |
| Cn1nc(C2CC2)cc1CC(=O)N1CCC(n2cc(CNc3cccc4c3C(=O)N(C3CCC(=O)NC3=O)C4=O)cn2)CC1 (stereo not drawn) [Compound 125, 4-(((1-(1-(2-(3-cyclopropyl-1-methyl-1H-pyrazol-5-yl)acetyl)piperidin-4-yl)-1H-pyrazol-4-yl)methyl)amino)-2-(2,6-dioxopiperidin-3-yl)isoindoline-1,3-dione] | < 100 nM |
| O=C1CCC(N2C(=O)c3cccc(NCc4cnn(CC5CCOCC5)c4)c3C2=O)C(=O)N1 (stereo not drawn) [Compound 155, 2-(2,6-dioxo-3-piperidyl)-4-[[1-(tetrahydropyran-4-ylmethyl)pyrazol-4-yl]methylamino]isoindoline-1,3-dione] | < 100 nM |
| CC(C)(C)OC(=O)N1CCC(n2ncc(CNc3cccc4c3C(=O)N(C3CCC(=O)NC3=O)C4=O)c2CC(=O)C2CC2)CC1 (stereo not drawn) [Compound 189, tert-Butyl 4-[5-(2-cyclopropyl-2-oxo-ethyl)-4-[[[2-(2,6-dioxo-3-piperidyl)-1,3-dioxo-isoindolin-4-yl]amino]methyl]pyrazol-1-yl]piperidine-1-carboxylate] | < 100 nM |
| COCC(=O)N1CCC(n2cc(CNc3cccc4c3C(=O)N(C3CCC(=O)NC3=O)C4=O)cn2)CC1 (stereo not drawn) [Compound 31, 2-(2,6-dioxopiperidin-3-yl)-4-(((1-(1-(2-methoxyacetyl)piperidin-4-yl)-1H-pyrazol-4-yl)methyl)amino)isoindoline-1,3-dione] | < 100 nM |
| CC(C)(C)CCC(=O)N1CCC(n2cc(CNc3cccc4c3C(=O)N(C3CCC(=O)NC3=O)C4=O)cn2)CC1 (stereo not drawn) [Compound 8, 4-(((1-(1-(4,4-dimethylpentanoyl)piperidin-4-yl)-1H-pyrazol-4-yl)methyl)amino)-2-(2,6-dioxopiperidin-3-yl)isoindoline-1,3-dione] | < 1 nM |
| N#CCC(=O)N1CCC(n2cc(CNc3cccc4c3C(=O)N(C3CCC(=O)NC3=O)C4=O)cn2)CC1 (stereo not drawn) [Compound 19, 3-(4-(4-(((2-(2,6-dioxopiperidin-3-yl)-1,3-dioxoisoindolin-4-yl)amino)methyl)-1H-pyrazol-1-yl)piperidin-1-yl)-3-oxopropanenitrile] | < 100 nM |
| O=C1CCC(N2C(=O)c3cccc(NCc4cnn(C5CCN(C(=O)Cc6ccc7c(c6Cl)OCCCO7)CC5)c4)c3C2=O)C(=O)N1 (stereo not drawn) [Compound 124, 4-(((1-(1-(2-(6-chloro-3,4-dihydro-2H-benzo[b][1,4]dioxepin-7-yl)acetyl)piperidin-4-yl)-1H-pyrazol-4-yl)methyl)amino)-2-(2,6-dioxopiperidin-3-yl)isoindoline-1,3-dione] | < 100 nM |
| CC1(C)C(C(=O)N2CCC(n3cc(CNc4cccc5c4C(=O)N(C4CCC(=O)NC4=O)C5=O)cn3)CC2)C1(C)C (stereo not drawn) [Compound 89, 2-(2,6-dioxopiperidin-3-yl)-4-(((1-(1-(2,2,3,3,3-tetramethylcyclopropane-1-carbonyl)piperidin-4-yl)-1H-pyrazol-4-yl)methyl)amino)isoindoline-1,3-dione] | < 1 nM |
| CC1(C(=O)N2CCC(n3cc(CNc4cccc5c4C(=O)N(C4CCC(=O)NC4=O)C5=O)cn3)CC2)CCOCC1 (stereo not drawn) [Compound 64, 2-(2,6-dioxopiperidin-3-yl)-4-(((1-(1-(4-methyltetrahydro-2H-pyran-4-carbonyl)piperidin-4-yl)-1H-pyrazol-4-yl)methyl)amino)isoindoline-1,3-dione] | < 100 nM |
| CC(C(=O)N1CCC(n2cc(CNc3cccc4c3C(=O)N(C3CCC(=O)NC3=O)C4=O)cn2)CC1)(C(F)(F)F)C(F)(F)F (stereo not drawn) [Compound 56, 2-(2,6-dioxopiperidin-3-yl)-4-(((1-(1-(3,3,3-trifluoro-2-methyl-2-(trifluoromethyl)propanoyl)piperidin-4-yl)-1H-pyrazol-4-yl)methyl)amino)isoindoline-1,3-dione] | < 100 nM |
| CC1(CN2CCC(n3cc(CNc4cccc5c4C(=O)N(C4CCC(=O)NC4=O)C5=O)cn3)CC2)CC1 (stereo not drawn) [Compound 136, 2-(2,6-dioxopiperidin-3-yl)-4-(((1-(1-((1-methylcyclopropyl)methyl)piperidin-4-yl)-1H-pyrazol-4-yl)methyl)amino)isoindoline-1,3-dione] | < 1 nM |
| O=C1CCC(N2C(=O)c3cccc(NCc4cnn(C5CCN(C(=O)CC6CCN(C(=O)c7ccccc7)CC6)CC5)c4)c3C2=O)C(=O)N1 (stereo not drawn) [Compound 123, 4-(((1-(1-(2-(1-benzoylpiperidin-4-yl)acetyl)piperidin-4-yl)-1H-pyrazol-4-yl)methyl)amino)-2-(2,6-dioxopiperidin-3-yl)isoindoline-1,3-dione] | < 100 nM |
| O=C1CCC(N2C(=O)c3cccc(NCc4cnn(C5CCN(C(=O)OCC(F)(F)F)CC5)c4)c3C2=O)C(=O)N1 (stereo not drawn) [Compound 165, 4-(4-{[2-(2,6-Dioxo-piperidin-3-yl)-1,3-dioxo-2,3-dihydro-1H-isoindol-4-ylamino]-methyl}-pyrazol-1-yl)-piperidine-1-carboxylic acid 2,2,2-trifluoro-ethyl ester] | < 100 nM |
| CC(C)(C)OC(=O)N1CCC(C(=O)N2CCC(n3cc(CNc4cccc5c4C(=O)N(C4CCC(=O)NC4=O)C5=O)cn3)CC2)CC1 (stereo not drawn) [Compound 121, tert-butyl 4-(4-(4-(((2-(2,6-dioxopiperidin-3-yl)-1,3-dioxoisoindolin-4-yl)amino)methyl)-1H-pyrazol-1-yl)piperidine-1-carbonyl)piperidine-1-carboxylate] | < 100 nM |
| CC(C)OCC(=O)N1CCC(n2cc(CNc3cccc4c3C(=O)N(C3CCC(=O)NC3=O)C4=O)cn2)CC1 (stereo not drawn) [Compound 41, 2-(2,6-dioxopiperidin-3-yl)-4-(((1-(1-(2-isopropoxyacetyl)piperidin-4-yl)-1H-pyrazol-4-yl)methyl)amino)-isoindoline-1,3-dione] | < 100 nM |
| O=C1CCC(N2C(=O)c3cccc(NCc4cnn(C5CCN(C(=O)C6CCCCC6)CC5)c4)c3C2=O)C(=O)N1 (stereo not drawn) [Compound 22, 4-(((1-(1-(cyclohexanecarbonyl)piperidin-4-yl)-1H-pyrazol-4-yl)methyl)amino)-2-(2,6-dioxopiperidin-3-yl)isoindoline-1,3-dione] | < 100 nM |
| O=C1CCC(N2C(=O)c3cccc(NCc4cnn(C5CCN(C(=O)C6C7(CC7)C67CC7)CC5)c4)c3C2=O)C(=O)N1 (stereo not drawn) [Compound 98, 2-(2,6-dioxopiperidin-3-yl)-4-(((1-(1-(dispiro[2.0.24.13]heptane-7-carbonyl)piperidin-4-yl)-1H-pyrazol-4-yl)methyl)amino)isoindoline-1,3-dione] | < 1 nM |
